Laboratory results from patent publication US20260285909A1, “PEPTIDES FOR ANTIMICROBIAL THERAPY” (Karl-Franzens-Universität Graz, priority 2023, published 2026).

Assays:
[1] = tested on: E. coli ATCC25992; test: Antimicrobial activity (LC99.9), killing in PBS with plating; assay type: cell-based, Escherichia coli; details: Gram-negative bacteria, lowest peptide concentration that killed ≥99.9% of bacteria, 37° C.
Protocol: (§1) In the context of the present invention, the test whether a peptide has an antimicrobial activity which is higher than the antimicrobial activity of peptide OP-145 (acetyl-[…]-amide (SEQ ID NO: 50)) may be performed according to any method known in the art, as for instance disclosed in Balouiri et al, 2016. In particular, S. aureus JAR060131, Enterococcus hirae ATCC 10541, Bacillus subitlis 168C trpC2 or Escherichia coli ATCC25992 are cultured to mid-logarithmic phase in tryptic soy broth, brain heart infusion (BHIB), mueller hinton (MHB) or luria broth (LB) and washed once with PBS. […] Thereafter, the number of viable bacteria is determined by plating on diagnostic sensitivity agar. Antimicrobial activity is expressed as the 99.9% killing concentration (LC99.9), i.e., the lowest peptide concentration that killed ≥99.9% of bacteria. […]
(§2) Antimicrobial activity: S. aureus JAR060131, Enterococcus hirae ATCC 10541, Bacillus subitlis 168C trpC2, Escherichia coli ATCC25992 or their variants were cultured to mid-logarithmic phase in tryptic soy broth, brain heart infusion (BHIB), mueller hinton (MHB) or luria broth (LB) and washed once with PBS. […] Thereafter, the number of viable bacteria was determined by plating on diagnostic sensitivity agar. Antimicrobial activity is expressed as the 99.9% killing concentration (LC99.9), i.e., the lowest peptide concentration that killed ≥99.9% of bacteria.

[2] = tested on: human erythrocytes; test: Hemolysis assay; assay type: cell-based
Protocol: In the context of the present invention, the test whether a peptide has a hemolytic activity which is lower than the hemolytic activity of peptide OP-145 (acetyl-[…]-amide (SEQ ID NO: 50)) may be performed according to any method known in the art, as for instance disclosed in Avrahami & Shai, 2004. In particular, a 0.5% erythrocyte solution in phosphate-buffered saline is exposed to the respective peptide (e.g. at 1 μM or 10 μM or 20 μM or 50 μM) at 37° C. for 1 h; hemolysis is determined by measuring optical density of the cell supernatants at 415 nm. More specifically, the assay may be performed as follows: Whole venous blood of healthy volunteers is collected in citrate tubes. Erythrocytes are isolated by centrifuging the blood for 10 min at 2,000×g and subsequently washing twice in PBS. […] After 1 h at 37° C. under static conditions, the erythrocyte suspensions are centrifuged and the optical density of the supernatants is determined at 415 nm. The percentage of hemolysis may be calculated relative to a positive control (e.g. 1% Triton X-100).
Hemolysis assay: Whole venous blood of healthy volunteers was collected in citrate tubes. […] After 1 h at 37° C. under static conditions, the erythrocyte suspensions were centrifuged and the optical density of the supernatants was determined at 415 nm. The percentage of hemolysis was calculated relative to the positive control (1% Triton X-100).

[3] = tested on: multi-resistant clinical isolates; test: Bactericidal activity against multi-resistant clinical isolates (FIG. 4); assay type: cell-based; details: 1 h treatment with peptides in presence of PBS
Protocol: Bactericidal activity was tested (for 1 h treatment with peptides) in presence of PBS according to de Breij et al., 2018. Bactericidal activity is expressed as LC99.9%—is the lethal concentration causing death in 99.9% cells. Results are ranges of at least three independent experiments. If no range is given, then LC99.9 values were identical in all experiments.
(§3) Antimicrobial activity: S. aureus JAR060131, Enterococcus hirae ATCC 10541, Bacillus subitlis 168C trpC2, Escherichia coli ATCC25992 or their variants were cultured to mid-logarithmic phase in tryptic soy broth, brain heart infusion (BHIB), mueller hinton (MHB) or luria broth (LB) and washed once with PBS. Approximately 1×10^6 CFU/ml of PBS were incubated with peptide (final concentrations: 0-102.4 μM) for 0-2 h at 37° C. under shaking conditions. Thereafter, the number of viable bacteria was determined by plating on diagnostic sensitivity agar. Antimicrobial activity is expressed as the 99.9% killing concentration (LC99.9), i.e., the lowest peptide concentration that killed ≥99.9% of bacteria.

[4] = tested on: B. subtilis 168 trpC2; test: Antimicrobial activity (LC99.9), killing in PBS with plating; assay type: cell-based, Bacillus subtilis; details: Gram-positive bacteria, lowest peptide concentration that killed ≥99.9% of bacteria, 37° C.
Protocol: as §1, §2

[5] = tested on: Gram-negative and Gram-positive bacteria; test: Antimicrobial activity, overall statement; assay type: cell-based; details: against both Gram-negative and Gram-positive bacteria
Protocol: as §3

Row | Sequence | LC99.9% [1] | lysis of human erythrocytes [2] | antimicrobial (bactericidal) activity against multi-resistant clinical isolates [3] | LC99.9% [4] | antimicrobial activity compared to OP-145I12K [5]
1 | IGKKFKRIVRRKKRFLRKLVRPLR [SEQ ID NO: 3] | 3.2 µM | did not lyse the human erythrocytes | Excellent antimicrobial activity | 3.2 µM | improved antimicrobial activity
2 | IGKEFKRIVERKWRFLRELVRPLR [SEQ ID NO: 2] | 6.4 µM | did not lyse the human erythrocytes |  | 3.2 µM | improved antimicrobial activity
